Experimental data as given in ChEMBL document CHEMBL1130949, “Construction of a family of biphenyl combinatorial libraries: structure-activity studies utilizing libraries of mixtures” (Bioorg Med Chem Lett, 1998).

Experiment: Binding affinity against vitronectin receptor was determined

Going from `CC(=O)N[C@@H](CC(=O)O)C(=O)Nc1ccc(-c2ccc(C(=O)O)cc2)cc1` to `CC(=O)N[C@@H](CC(=O)O)C(=O)Nc1ccc(-c2cccc(C(=O)O)c2)cc1`, the IC50 falls from 96 µM to 31 µM (3.1-fold). The second is the more potent here.

First: CC(C)C(=O)N[C@@H](CC(=O)O)C(=O)Nc1ccc(-c2ccccc2C(=O)O)cc1
Second: CC(=O)N[C@@H](CC(=O)O)C(=O)Nc1ccc(-c2ccccc2C(=O)O)cc1
The IC50 of the first is higher: greater than 500 µM for the first, 52 µM for the second.

`COCC(=O)N[C@@H](CC(=O)O)C(=O)Nc1ccc(-c2ccccc2C(=O)O)cc1` and `CC(=O)N[C@H](CC(=O)O)C(=O)Nc1ccc(-c2ccccc2C(=O)O)cc1` cannot be ordered by IC50: greater than 500 µM for the first, greater than 500 µM for the second.

First: CC(=O)N[C@@H](CC(=O)O)C(=O)Nc1cccc(-c2ccccc2C(=O)O)c1
Second: CC(=O)N[C@@H](CC(=O)O)C(=O)Nc1ccc(-c2ccccc2C(N)=O)cc1
The IC50 of the first is 2.1-fold lower: 46 µM for the first, 96 µM for the second.

For `CC(=O)N[C@@H](CC(=O)O)C(=O)Nc1ccc(-c2ccccc2C(=O)N[C@@H](CCCN=C(N)N)C(=O)O)cc1`, the IC50 was 34 µM.
